Tested on: Stress protein genes
Assay: DNA chip mRNA expression in yeast, stress protein genes (Table 6)
Format: cell-based, Saccharomyces cerevisiae S288C
Procedure, shortened: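 Expression change after 2 h toxicant exposure (growth-inhibiting, sub-lethal) of log-phase S. cerevisiae S288C at 25° C. Oligo-dT-purified mRNA was labeled with Cy3-dUTP or Cy5-dUTP and hybridized >12 h at 65° C. to a genome-wide chip; ratio of scanned fluorescence to control.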

SMILES: CCCCCCCCCCCCOS(=O)(=O)[O-].[Na+] [(18), sodium lauryl sulfate]
- The level of expressed mRNA in the presence of chemical substance/The level of expressed mRNA in the absence of chemical substance (yeast gene YAL005C): 0.5
- The level of expressed mRNA in the presence of chemical substance/The level of expressed mRNA in the absence of chemical substance (yeast gene YAL015C): 1.2
- The level of expressed mRNA in the presence of chemical substance/The level of expressed mRNA in the absence of chemical substance (yeast gene YBL075C): 0.7
- The level of expressed mRNA in the presence of chemical substance/The level of expressed mRNA in the absence of chemical substance (yeast gene YBL093C): 1.3
- The level of expressed mRNA in the presence of chemical substance/The level of expressed mRNA in the absence of chemical substance (yeast gene YBR044C): 1.3
- The level of expressed mRNA in the presence of chemical substance/The level of expressed mRNA in the absence of chemical substance (yeast gene YBR054W): 0.7
- The level of expressed mRNA in the presence of chemical substance/The level of expressed mRNA in the absence of chemical substance (yeast gene YBR067C): 0.4
- The level of expressed mRNA in the presence of chemical substance/The level of expressed mRNA in the absence of chemical substance (yeast gene YBR072W): 2.2
- The level of expressed mRNA in the presence of chemical substance/The level of expressed mRNA in the absence of chemical substance (yeast gene YBR126C): 1.3
- The level of expressed mRNA in the presence of chemical substance/The level of expressed mRNA in the absence of chemical substance (yeast gene YBR169C): 1.6
- The level of expressed mRNA in the presence of chemical substance/The level of expressed mRNA in the absence of chemical substance (yeast gene YCL035C): 4.2
- The level of expressed mRNA in the presence of chemical substance/The level of expressed mRNA in the absence of chemical substance (yeast gene YCR021C): 0.8
- The level of expressed mRNA in the presence of chemical substance/The level of expressed mRNA in the absence of chemical substance (yeast gene YCR060W): 1.7
- The level of expressed mRNA in the presence of chemical substance/The level of expressed mRNA in the absence of chemical substance (yeast gene YCR083W): 1.3
- The level of expressed mRNA in the presence of chemical substance/The level of expressed mRNA in the absence of chemical substance (yeast gene YDL022W): 1.4
- The level of expressed mRNA in the presence of chemical substance/The level of expressed mRNA in the absence of chemical substance (yeast gene YDL025C): 1.4
- The level of expressed mRNA in the presence of chemical substance/The level of expressed mRNA in the absence of chemical substance (yeast gene YDR033W): 1.0
- The level of expressed mRNA in the presence of chemical substance/The level of expressed mRNA in the absence of chemical substance (yeast gene YDR077W): 1.1
- The level of expressed mRNA in the presence of chemical substance/The level of expressed mRNA in the absence of chemical substance (yeast gene YDR098C): 1.2
- The level of expressed mRNA in the presence of chemical substance/The level of expressed mRNA in the absence of chemical substance (yeast gene YDR155C): 2.5
- The level of expressed mRNA in the presence of chemical substance/The level of expressed mRNA in the absence of chemical substance (yeast gene YDR258C): 1.3
- The level of expressed mRNA in the presence of chemical substance/The level of expressed mRNA in the absence of chemical substance (yeast gene YDR293C): 1.3
- The level of expressed mRNA in the presence of chemical substance/The level of expressed mRNA in the absence of chemical substance (yeast gene YDR436W): 1.2
- The level of expressed mRNA in the presence of chemical substance/The level of expressed mRNA in the absence of chemical substance (yeast gene YDR513W): 3.2
- The level of expressed mRNA in the presence of chemical substance/The level of expressed mRNA in the absence of chemical substance (yeast gene YDR519W): 2.4
- The level of expressed mRNA in the presence of chemical substance/The level of expressed mRNA in the absence of chemical substance (yeast gene YEL030W): 0.6
- The level of expressed mRNA in the presence of chemical substance/The level of expressed mRNA in the absence of chemical substance (yeast gene YEL039C): 1.1
- The level of expressed mRNA in the presence of chemical substance/The level of expressed mRNA in the absence of chemical substance (yeast gene YER042W): 1.1
- The level of expressed mRNA in the presence of chemical substance/The level of expressed mRNA in the absence of chemical substance (yeast gene YER057C): 1.8
- The level of expressed mRNA in the presence of chemical substance/The level of expressed mRNA in the absence of chemical substance (yeast gene YER103W): 0.6
- The level of expressed mRNA in the presence of chemical substance/The level of expressed mRNA in the absence of chemical substance (yeast gene YER125W): 1.0
- The level of expressed mRNA in the presence of chemical substance/The level of expressed mRNA in the absence of chemical substance (yeast gene YFL014W): 8.8
- The level of expressed mRNA in the presence of chemical substance/The level of expressed mRNA in the absence of chemical substance (yeast gene YFL016C): 0.9
- The level of expressed mRNA in the presence of chemical substance/The level of expressed mRNA in the absence of chemical substance (yeast gene YFL020C): 0.9
- The level of expressed mRNA in the presence of chemical substance/The level of expressed mRNA in the absence of chemical substance (yeast gene YFR052W): 1.9
- The level of expressed mRNA in the presence of chemical substance/The level of expressed mRNA in the absence of chemical substance (yeast gene YGL073W): 1.2
- The level of expressed mRNA in the presence of chemical substance/The level of expressed mRNA in the absence of chemical substance (yeast gene YGL115W): 1.2
- The level of expressed mRNA in the presence of chemical substance/The level of expressed mRNA in the absence of chemical substance (yeast gene YGL181W): 1.3
- The level of expressed mRNA in the presence of chemical substance/The level of expressed mRNA in the absence of chemical substance (yeast gene YGR088W): 2.0
- The level of expressed mRNA in the presence of chemical substance/The level of expressed mRNA in the absence of chemical substance (yeast gene YHL028W): 2.5
- The level of expressed mRNA in the presence of chemical substance/The level of expressed mRNA in the absence of chemical substance (yeast gene YHL046C): 0.9
- The level of expressed mRNA in the presence of chemical substance/The level of expressed mRNA in the absence of chemical substance (yeast gene YHR030C): 1.8
- The level of expressed mRNA in the presence of chemical substance/The level of expressed mRNA in the absence of chemical substance (yeast gene YHR057C): 1.3
- The level of expressed mRNA in the presence of chemical substance/The level of expressed mRNA in the absence of chemical substance (yeast gene YHR104W): 1.9
- The level of expressed mRNA in the presence of chemical substance/The level of expressed mRNA in the absence of chemical substance (yeast gene YIL011W): 0.8
- The level of expressed mRNA in the presence of chemical substance/The level of expressed mRNA in the absence of chemical substance (yeast gene YIL033C): 1.2
- The level of expressed mRNA in the presence of chemical substance/The level of expressed mRNA in the absence of chemical substance (yeast gene YIR037W): 2.9
- The level of expressed mRNA in the presence of chemical substance/The level of expressed mRNA in the absence of chemical substance (yeast gene YIR038C): 2.0
- The level of expressed mRNA in the presence of chemical substance/The level of expressed mRNA in the absence of chemical substance (yeast gene YJL128C): 1.0
- The level of expressed mRNA in the presence of chemical substance/The level of expressed mRNA in the absence of chemical substance (yeast gene YJL158C): 1.4
- The level of expressed mRNA in the presence of chemical substance/The level of expressed mRNA in the absence of chemical substance (yeast gene YJL159W): 0.9
- The level of expressed mRNA in the presence of chemical substance/The level of expressed mRNA in the absence of chemical substance (yeast gene YJL165C): 1.8
- The level of expressed mRNA in the presence of chemical substance/The level of expressed mRNA in the absence of chemical substance (yeast gene YJR045C): 0.9
- The level of expressed mRNA in the presence of chemical substance/The level of expressed mRNA in the absence of chemical substance (yeast gene YJR090C): 1.0
- The level of expressed mRNA in the presence of chemical substance/The level of expressed mRNA in the absence of chemical substance (yeast gene YKL161C): 1.9
- The level of expressed mRNA in the presence of chemical substance/The level of expressed mRNA in the absence of chemical substance (yeast gene YKL163W): 1.0
- The level of expressed mRNA in the presence of chemical substance/The level of expressed mRNA in the absence of chemical substance (yeast gene YKL164C): 0.8
- The level of expressed mRNA in the presence of chemical substance/The level of expressed mRNA in the absence of chemical substance (yeast gene YKL210W): 1.1
- The level of expressed mRNA in the presence of chemical substance/The level of expressed mRNA in the absence of chemical substance (yeast gene YKR053C): 2.4
- The level of expressed mRNA in the presence of chemical substance/The level of expressed mRNA in the absence of chemical substance (yeast gene YLL024C): 0.6
- The level of expressed mRNA in the presence of chemical substance/The level of expressed mRNA in the absence of chemical substance (yeast gene YLL026W): 2.5
- The level of expressed mRNA in the presence of chemical substance/The level of expressed mRNA in the absence of chemical substance (yeast gene YLL039C): 2.1
- The level of expressed mRNA in the presence of chemical substance/The level of expressed mRNA in the absence of chemical substance (yeast gene YLL060C): 2.3
- The level of expressed mRNA in the presence of chemical substance/The level of expressed mRNA in the absence of chemical substance (yeast gene YLR006C): 1.0
- The level of expressed mRNA in the presence of chemical substance/The level of expressed mRNA in the absence of chemical substance (yeast gene YLR109W): 1.2
- The level of expressed mRNA in the presence of chemical substance/The level of expressed mRNA in the absence of chemical substance (yeast gene YLR259C): 1.0
- The level of expressed mRNA in the presence of chemical substance/The level of expressed mRNA in the absence of chemical substance (yeast gene YML007W): 1.4
- The level of expressed mRNA in the presence of chemical substance/The level of expressed mRNA in the absence of chemical substance (yeast gene YML070W): 1.3
- The level of expressed mRNA in the presence of chemical substance/The level of expressed mRNA in the absence of chemical substance (yeast gene YMR021C): 3.4
- The level of expressed mRNA in the presence of chemical substance/The level of expressed mRNA in the absence of chemical substance (yeast gene YMR173W): 1.8
- The level of expressed mRNA in the presence of chemical substance/The level of expressed mRNA in the absence of chemical substance (yeast gene YMR186W): 1.1
- The level of expressed mRNA in the presence of chemical substance/The level of expressed mRNA in the absence of chemical substance (yeast gene YNL064C): 0.7
- The level of expressed mRNA in the presence of chemical substance/The level of expressed mRNA in the absence of chemical substance (yeast gene YNL160W): 1.0
- The level of expressed mRNA in the presence of chemical substance/The level of expressed mRNA in the absence of chemical substance (yeast gene YNL241C): 1.0
- The level of expressed mRNA in the presence of chemical substance/The level of expressed mRNA in the absence of chemical substance (yeast gene YNR076W): 0.8
- The level of expressed mRNA in the presence of chemical substance/The level of expressed mRNA in the absence of chemical substance (yeast gene YOL064C): 1.3
- The level of expressed mRNA in the presence of chemical substance/The level of expressed mRNA in the absence of chemical substance (yeast gene YOL161C): 1.0
- The level of expressed mRNA in the presence of chemical substance/The level of expressed mRNA in the absence of chemical substance (yeast gene YOR008C): 1.3
- The level of expressed mRNA in the presence of chemical substance/The level of expressed mRNA in the absence of chemical substance (yeast gene YOR009W): 0.8
- The level of expressed mRNA in the presence of chemical substance/The level of expressed mRNA in the absence of chemical substance (yeast gene YOR010C): 0.6
- The level of expressed mRNA in the presence of chemical substance/The level of expressed mRNA in the absence of chemical substance (yeast gene YOR027W): 0.8
- The level of expressed mRNA in the presence of chemical substance/The level of expressed mRNA in the absence of chemical substance (yeast gene YOR208W): 1.6
- The level of expressed mRNA in the presence of chemical substance/The level of expressed mRNA in the absence of chemical substance (yeast gene YPL059W): 1.3
- The level of expressed mRNA in the presence of chemical substance/The level of expressed mRNA in the absence of chemical substance (yeast gene YPL106C): 0.5
- The level of expressed mRNA in the presence of chemical substance/The level of expressed mRNA in the absence of chemical substance (yeast gene YPL140C): 1.4
- The level of expressed mRNA in the presence of chemical substance/The level of expressed mRNA in the absence of chemical substance (yeast gene YPL194W): 0.8
- The level of expressed mRNA in the presence of chemical substance/The level of expressed mRNA in the absence of chemical substance (yeast gene YPL223C): 1.3
- The level of expressed mRNA in the presence of chemical substance/The level of expressed mRNA in the absence of chemical substance (yeast gene YPL240C): 1.0
- The level of expressed mRNA in the presence of chemical substance/The level of expressed mRNA in the absence of chemical substance (yeast gene YPR005C): 1.1
- The level of expressed mRNA in the presence of chemical substance/The level of expressed mRNA in the absence of chemical substance (yeast gene YPR026W): 1.3
